Measurements reported in ChEMBL document CHEMBL2440076, “New triarylpyrazoles as broad-spectrum anticancer agents: design, synthesis, and biological evaluation” (Eur J Med Chem, 2013).

Columns and labels:
HOP-92 = experiment: Growth inhibition of human HOP92 cells assessed as cell growth at 10 uM after 48 hrs by sulforhodamine B assay; type: functional; details: HOP-92, 48 h, read-out: Activity
SW-620 = experiment: Growth inhibition of human SW620 cells assessed as cell growth at 10 uM after 48 hrs by sulforhodamine B assay; type: functional; details: SW-620, 48 h, read-out: Activity
HOP-62 = experiment: Growth inhibition of human HOP62 cells after 48 hrs by sulforhodamine B assay; type: functional; details: HOP-62, 48 h
SF-539 = experiment: Growth inhibition of human SF539 cells assessed as cell growth at 10 uM after 48 hrs by sulforhodamine B assay; type: functional; details: SF-539, 48 h, read-out: Activity
[1] = Growth inhibition of human NCI-ADR-RES cells assessed as cell growth at 10 uM after 48 hrs by sulforhodamine B assay; type: functional; details: read-out: Activity
MOLT-4 [2] = experiment: Growth inhibition of human MOLT4 cells assessed as cell growth at 10 uM after 48 hrs by sulforhodamine B assay; type: functional; details: MOLT-4, 48 h, read-out: Activity
COLO 205 = experiment: Growth inhibition of human COLO205 cells after 48 hrs by sulforhodamine B assay; type: functional; details: COLO 205, 48 h
HCT-15 [3] = experiment: Growth inhibition of human HCT15 cells assessed as cell growth at 10 uM after 48 hrs by sulforhodamine B assay; type: functional; details: HCT-15, 48 h, read-out: Activity
A498 = experiment: Growth inhibition of human A498 cells assessed as cell growth at 10 uM after 48 hrs by sulforhodamine B assay; type: functional; details: A498, 48 h, read-out: Activity
[4] = Growth inhibition of human Hs 578T cells after 48 hrs by sulforhodamine B assay; type: functional
A549 = experiment: Growth inhibition of human A549/ATCC cells assessed as cell growth at 10 uM after 48 hrs by sulforhodamine B assay; type: functional; details: A549, 48 h, read-out: Activity
HL-60(TB) = experiment: Growth inhibition of human HL-60(TB) cells assessed as cell growth at 10 uM after 48 hrs by sulforhodamine B assay; type: functional; details: HL-60, 48 h, read-out: Activity
TK-10 [5] = experiment: Growth inhibition of human TK10 cells assessed as cell growth at 10 uM after 48 hrs by sulforhodamine B assay; type: functional; details: TK-10, 48 h, read-out: Activity
SK-MEL-28 = experiment: Growth inhibition of human SK-MEL-28 cells assessed as cell growth at 10 uM after 48 hrs by sulforhodamine B assay; type: functional; details: SK-MEL-28, 48 h, read-out: Activity
T47D [6] = experiment: Growth inhibition of human T47D cells assessed as cell growth at 10 uM after 48 hrs by sulforhodamine B assay; type: functional; details: read-out: Activity
[7] = Growth inhibition of human HCC2998 cells assessed as cell growth at 10 uM after 48 hrs by sulforhodamine B assay; type: functional; details: HCC 2998, 48 h, read-out: Activity
MDA-MB-231 [8] = experiment: Growth inhibition of human MDA-MB-231 cells after 48 hrs by sulforhodamine B assay; type: functional; details: MDA-MB-231, 48 h
[9] = Growth inhibition of human NCI-ADR-RES cells after 48 hrs by sulforhodamine B assay; type: functional
SN12C = experiment: Growth inhibition of human SN12C cells after 48 hrs by sulforhodamine B assay; type: functional
NCI-H226 = experiment: Growth inhibition of human NCI-H226 cells after 48 hrs by sulforhodamine B assay; type: functional; details: NCI-H226, 48 h
Malme-3M = experiment: Growth inhibition of human MALME-3M cells after 48 hrs by sulforhodamine B assay; type: functional
MDA-MB-435 [10] = experiment: Growth inhibition of human MDA-MB-435 cells assessed as cell growth at 10 uM after 48 hrs by sulforhodamine B assay; type: functional; details: MDA-MB-435, 48 h, read-out: Activity
SF-295 = experiment: Growth inhibition of human SF295 cells after 48 hrs by sulforhodamine B assay; type: functional, cell-based; details: SF-295, 48 h
HCT-116 = experiment: Growth inhibition of human HCT116 cells after 48 hrs by sulforhodamine B assay; type: functional; details: HCT-116, 48 h
CAKI-1 = experiment: Growth inhibition of human CAKI-1 cells after 48 hrs by sulforhodamine B assay; type: functional; details: CAKI-1, 48 h
MOLT-4 [11] = experiment: Growth inhibition of human MOLT4 cells after 48 hrs by sulforhodamine B assay; type: functional; details: MOLT-4, 48 h
MDA-MB-468 = experiment: Growth inhibition of human MDA-MB-468 cells assessed as cell growth at 10 uM after 48 hrs by sulforhodamine B assay; type: functional; details: MDA-MB-468, 48 h, read-out: Activity
MDA-MB-435 [12] = experiment: Growth inhibition of human MDA-MB-435 cells after 48 hrs by sulforhodamine B assay; type: functional, cell-based; details: MDA-MB-435, 48 h
RPMI-8226 = experiment: Growth inhibition of human RPMI8226 cells assessed as cell growth at 10 uM after 48 hrs by sulforhodamine B assay; type: functional; details: RPMI-8226, 48 h, read-out: Activity
TK-10 [13] = experiment: Growth inhibition of human TK10 cells after 48 hrs by sulforhodamine B assay; type: functional; details: TK-10, 48 h
T47D [14] = experiment: Growth inhibition of human T47D cells after 48 hrs by sulforhodamine B assay; type: functional
MDA-MB-231 [15] = experiment: Growth inhibition of human MDA-MB-231 cells assessed as cell growth at 10 uM after 48 hrs by sulforhodamine B assay; type: functional; details: MDA-MB-231, 48 h, read-out: Activity
PC-3 = experiment: Growth inhibition of human PC3 cells after 48 hrs by sulforhodamine B assay; type: functional, cell-based; details: PC-3, 48 h
HCT-15 [16] = experiment: Growth inhibition of human HCT15 cells after 48 hrs by sulforhodamine B assay; type: functional; details: HCT-15, 48 h
[17] = read-out: LC50 (the source's name)

SMILES: COc1cc(-c2nn(-c3cccc(NC(=O)Nc4cc(C(F)(F)F)cc(C(F)(F)F)c4)c3)cc2-c2ccncc2)ccc1Cl
- growth at 10 µM (HOP-92): -50.2%
- growth at 10 µM (SW-620): -2.89%
- GI50 (HOP-62): 0.855 µM
- TGI (HOP-62): 1.59 µM
- CC50 (HOP-62; [17]): 2.95 µM
- growth at 10 µM (SF-539): -53.5%
- growth at 10 µM [1]: 1.11%
- growth at 10 µM (MOLT-4 [2]): -24.5%
- GI50 (COLO 205): 0.847 µM
- LC50 (concentration killing 50% of cells) (COLO 205): 2.91 µM
- TGI (COLO 205): 1.57 µM
- growth at 10 µM (HCT-15 [3]): 2.59%
- growth at 10 µM (A498): -14.6%
- GI50 [4]: 1.04 µM
- TGI [4]: 3.68 µM
- CC50 [4, 17]: > 50 µM
- growth at 10 µM (A549): -23.8%
- growth at 10 µM (HL-60(TB)): -20.2%
- growth at 10 µM (TK-10 [5]): -26.7%
- growth at 10 µM (SK-MEL-28): -28.9%
- growth at 10 µM (T47D [6]): 4.45%
- growth at 10 µM [7]: -10.8%
- GI50 (MDA-MB-231 [8]): 0.664 µM
- LC50 (MDA-MB-231 [8]): 3 µM
- TGI (MDA-MB-231 [8]): 1.41 µM
- GI50 [9]: 1.01 µM
- TGI [9]: 5.18 µM
- CC50 [9, 17]: > 50 µM
- GI50 (SN12C): 0.932 µM
- TGI (SN12C): 3.32 µM
- CC50 (SN12C; [17]): > 50 µM
- GI50 (NCI-H226): 1.36 µM
- TGI (NCI-H226): 21.8 µM
- CC50 (NCI-H226; [17]): > 50 µM
- GI50 (Malme-3M): 0.892 µM
- LC50 (concentration killing 50% of starting cells) (Malme-3M): 7.68 µM
- TGI (Malme-3M): 2.17 µM
- growth at 10 µM (MDA-MB-435 [10]): -58.3%
- GI50 (SF-295): 0.399 µM
- IC50 (SF-295): 0.4 µM
- TGI (SF-295): 1.23 µM
- CC50 (SF-295; [17]): 3.31 µM
- GI50 (HCT-116): 0.643 µM
- TGI (HCT-116): 1.76 µM
- CC50 (HCT-116; [17]): 4.83 µM
- GI50 (CAKI-1): 0.993 µM
- TGI (CAKI-1): 3.14 µM
- CC50 (CAKI-1; [17]): 49.3 µM
- GI50 (MOLT-4 [11]): 1.08 µM
- TGI (MOLT-4 [11]): 4.48 µM
- CC50 (MOLT-4 [11]; [17]): > 50 µM
- growth at 10 µM (MDA-MB-468): -25.4%
- GI50 (MDA-MB-435 [12]): 0.886 µM
- IC50 (MDA-MB-435 [12]): 0.89 µM
- TGI (MDA-MB-435 [12]): 1.99 µM
- CC50 (MDA-MB-435 [12]; [17]): 4.46 µM
- growth at 10 µM (RPMI-8226): -11.7%
- GI50 (TK-10 [13]): 0.894 µM
- TGI (TK-10 [13]): 2.48 µM
- CC50 (TK-10 [13]; [17]): 10.1 µM
- GI50 (T47D [14]): 1.55 µM
- TGI (T47D [14]): > 50 µM
- CC50 (T47D [14]; [17]): > 50 µM
- growth at 10 µM (MDA-MB-231 [15]): -92%
- GI50 (PC-3): 0.25 µM
- IC50 (PC-3): 0.25 µM
- TGI (PC-3): 2.07 µM
- CC50 (PC-3; [17]): > 50 µM
- GI50 (HCT-15 [16]): 0.617 µM
- LC50 (HCT-15 [16]): 4.33 µM
- TGI (HCT-15 [16]): 1.64 µM
